Experimental data reported in publication PMC6332320, “Factors Influencing Oral Bioavailability of Thai Mango Seed Kernel Extract and Its Key Phenolic Principles” (Molecules, 2015).
Like-named read-outs stand apart in the source and are kept apart here. Marks after values point to notes of the source that are not given here.

What was measured:
[1] = Chemical stability in HBSS at pH 5, 6, 7 and 8; assay type: physicochemical
Experimental: The chemical stability of GA, MG, PGG and MSKE was determined in HBSS at pH 5, 6, 7 and 8. The test compounds were added to HBSS to obtain the final concentrations (2 and 20 μM) for each standard compound or MSKE (0.25 mg/mL), which is equivalent to concentrations of 26.70 ± 1.35 µM GA, 4.90 ± 0.38 µM MG and 27.09 ± 8.01 µM PGG. The solutions at pH 5, 7 and 8 were then incubated in a water bath at 37 °C for 4 h, whereas the solutions at pH 6 were incubated for 8 h. Samples (200 μL) were collected at different time intervals (0, 1, 2, 3 and 4 h or 0, 1, 2, 4, 6 and 8 h) and then vortexed and centrifuged at 15,500 rpm for 15 min. The supernatant was injected into the UPLC for analysis. All experiments were performed in triplicate.
(§1) The chemical and biological stabilities of the phenolic compounds were expressed as the concentration of the analyte at different time points relative to the concentration of the same analyte at time zero multiplied by 100 (% recovery).

in vitro = in vitro ADME, rat; details: Sprague-Dawley, pH 6, rat fecal lysates, 24 h; for recovery at 24 h, 100 µg/mL: as principle in MSKE 100 µg/mL, relative to HBSS, read-out: relative recovery after incubation with the fecal lysates
Experimental: (§2) The rat fecal lysate was prepared according to the method of Niu et al. with slight modifications. Briefly, 3 g of feces was collected from SD rats (8–10 weeks, n = 6) were then washed with ice-cold 0.1 mM potassium phosphate buffer (KPi, 10 mL). After resuspension in ice-cold 0.1 mM KPi (20 mL), the feces were vortexed and sonicated in an ice water bath for 45 min. To obtain the fecal lysate, the mixture was centrifuged at 15,000 rpm at 4 °C for 30 min. The supernatant was collected and maintained at –80 °C until use. The protein concentration in the fecal lysate was determined using a BCA™ protein assay kit.
(§3) The prepared fecal lysate was thawed and diluted with ice-cold HBSS at pH 6 to obtain a final concentration of 0.5 mg/mL protein for each test. […] The mixtures were then incubated in water bath at 37 °C for 24 h. After samples (200 μL) were collected at each specific time point (0, 1, 2, 8, and 24 h), the reaction was stopped by adding ice-cold methanol (50 μL). The samples were then vortexed and centrifuged at 15,500 rpm for 15 min, and the supernatant was injected into the UPLC for analysis.
as §1

rat fecal lysates = assay: in vitro; assay type: in vitro ADME; details: for recovery after incubation with inactive fecal lysates and HBSS at pH 6 / recovery after incubation with fecal lysates: as principle in MSKE 100 µg/mL; for recovery after incubation with fecal lysates / stability in inactive rat fecal lysates or HBSS at pH 6: 24 h
Experimental: as §2, §3, §1

[2] = Excretion in urine and feces after oral administration in rats; assay type: in vivo, Sprague-Dawley rats; details: for Total Mass in Feces (0−24 h) / Total Mass in Urine (0−24 h): p.o.; for dose excreted: Sprague-Dawley, rat, blood, urine and feces, oral, 0-24 h, read-out: % recovery (total mass recovery: blood + urine + feces / initial mass)
Experimental: SD rats (five rats/group) were individually housed in stainless-steel metabolic cages, which allowed for the separation and collection of urine and feces. The rats were fasted overnight with ad libitum access to water prior to the day of the experiment. After a rat was anesthetized with isoflurane gas, the prepared suspension of test compound in an oral suspension vehicle was administered to the animals via oral gavage at a dose of 20 mg/kg for each compound in the mixture of MG and PGG or at 143 mg/kg MSKE, which is equivalent to approximate doses of 20 mg/kg PGG and 0.13 mg/kg MG. Subsequently, the rats’ tails were snipped near the tip to collect blood samples (approximately 50 µL), which were collected in heparinized tubes at 0, 0.50, 1, 2, 4, 6, 8 and 24 h. To investigate the excretion of phenolic compounds, urine and feces were collected between 0–24 h post-administration into tubes containing penicillin G (200 mg) and dry tubes, respectively, which were pre-weighted before use. After completing the pharmacokinetic study, the urine volume and dry feces weights were recorded, and all samples were stored at −80 °C until analysis.
The blood and urine samples were prepared according to our previously reported methods. The fecal samples were prepared by adding 30 mL methanol to the sample, and the mixture was then vortexed and sonicated for 30 min to obtain the fecal lysates, which were extracted via the same method.
The pharmacokinetic parameters of MG and PGG were calculated based on the non-compartmental method using WinNonlin 3.3 (Pharsight Corporation, Mountain View, CA, USA). The total mass of analytes was calculated according to the following equations (Equations (3)–(6)): The mass recovery (%) = (total mass in blood + total mass in urine + total mass in feces)/initial mass of analyte (3) Total mass in blood = C24h in blood × rat blood volume (70 mL/kg of body weight) (4) Total mass in urine = C0–24h in urine × volume of urine (0–24 h) (5) Total mass in feces = C0–24h in fecal lysate × volume of fecal lysate (30 mL) (6) where C24h in the blood is the concentration of analyte found in the blood sample at 24 h, and C0–24h in the urine and C0–24h in the fecal lysate are the concentrations of the analyte found in the urine and fecal samples, respectively, between 0 and 24 h.

[3] = as principle in MSKE 0.25 mg/mL, pH 5, 6 or 7, 4 h
[4] = as principle in MSKE 0.25 mg/mL, pH 6, 8 h
[5] = as principle in MSKE 0.25 mg/mL, pH 8, 4 h
[6] = individual compound 2 and 20 µM, pH 5 or 7, 4 h, 37 °C
[7] = MSKE 143 mg/kg (20 mg/kg PGG and 0.13 mg/kg MG)
[8] = mixture of MG and PGG 20 mg/kg each

Row | recovery at 24 h, 100 µg/mL (in vitro; rat fecal lysate) [%] | recovery at 24 h, 10 µM (in vitro; rat fecal lysate, mixture of GA, MG and PGG 10 µM each, read-out: recovery after incubation with the fecal lysates) [%] | time to complete degradation in fecal lysates (rat fecal lysates; individual compound 10 µM, rat fecal lysates) [h] | stability in inactive fecal lysates (rat fecal lysates; mixture of GA, MG and PGG 10 µM each, PGG after 8 h) | dose excreted [2, 7] [%] | dose excreted [2, 8] [%] | Compound | chemical stability in HBSS [1, 3] | chemical stability in HBSS [1, 4] | chemical stability in HBSS [1, 5] | chemical stability in HBSS [1, 6] | recovery at 24 h, 100 µg/mL (in vitro) [%] | maximum GA concentration increase after hydrolysis of PGG (rat fecal lysates; PGG 10 µM incubated with rat fecal lysates) | recovery after incubation with inactive fecal lysates and HBSS at pH 6 (rat fecal lysates) | recovery after incubation with fecal lysates (rat fecal lysates; rat fecal lysates) | stability in inactive rat fecal lysates or HBSS at pH 6 (rat fecal lysates; individual compound 10 µM) | Total Mass in Feces (0−24 h) [2, 7] | Total Mass in Urine (0−24 h) [2, 7] | Total Mass in Feces (0−24 h) [2, 8] [µg] | Total Mass in Urine (0−24 h) [2, 8] [µg]
1 | – | – | – | – | – | – | O=C(O)c1cc(O)c(O)c(O)c1 [GA, Gallic acid] | stable | moderately increased recovery | decomposed | only stable at pH 7 | 167 | approximately 4 fold | increased recoveries | increased recoveries | not significantly different from the initial concentrations | 39.47 ± 17.44 ^b µg | 54.54 ± 26.59 µg | 9.64 ± 1.91 | 42.95 ± 26.88
2 | 54.7 | 55.4 | ≤ 8 | good stabilities | 73.4 ± 30 | < 2 | COC(=O)c1cc(O)c(O)c(O)c1 [MG, methyl gallate] | increased recoveries | dramatically increased recoveries | slightly decreased recovery | only stable at pH 7 | – | – | increased recoveries | increased recoveries | stable | 18.35 ± 10.14 ^b µg | 9.81 ± 2.81 ^b µg | 3.25 ± 1.73 | 100.36 ± 74.67
